system: WT-LRRK2 or G2019S-LRRK2; assay: Inhibition of LRRK2 phosphorylation (pS935 antibody) in lysates of transfected HEK-293T cells; type: cell-based; conditions: HEK-293T cells transiently transfected with either WT-LRRK2 or G2019S-LRRK2
Description: To test whether Example 90 and Example 34 can inhibit LRRK2 phosphorylation, an antibody commercially available from Epitomics directed against the serine residue number 935 on LRRK2 from lysates generated from HEK-293T cells transiently transfected with either WT-LRRK2 or G2019S-LRRK2 protein.

Structure (SMILES) | levels of pS935 on LRRK2
CCC(Sc1ccc2nnc(-c3cccs3)n2n1)C(=O)N1CCCCC1 (centres unmarked) [Example 34, 1-(piperidin-1-yl)-2-((3-(thiophen-2-yl)-[1,2,4]triazolo[4,3-b]pyridazin-6-yl)thio)butan-1-one] | partially inhibited

target: T1, LRRK2 (G2019S) (Homo sapiens, UniProt Q5S007, G2019S); assay: LRRK2 inhibition, radiometric kinase assay with recombinant GST-LRRK2 (delta970) and peptide substrate; type: biochemical; conditions: GST-LRRK2 (delta970) G2019S 30 nM, ATP ~52 μM (Km), 30 min at 30° C.
T1 construct: Recombinant GST-LRRK2 (delta970), purified from baculovirus infected insect cells (SF9); GST (N); host or cells: baculovirus infected insect cells (SF9)
Method: Compounds were assessed for inhibition of LRRK2 inhibition using the following procedure.
Recombinant GST-LRRK2 (delta970), purified from baculovirus infected insect cells (SF9), at least 90% pure and either wild-type sequence or bearing the pathogenic G2019S mutation, was combined into a kinase buffer at 30 nM concentration. Kinase buffer consists of 50 mM Tris HCl pH 7.4, 1 mM EDTA, and 50 μM peptide substrate (amino acid sequence […]). Experimental compounds or control (no compound) were added at desired concentrations in DMSO and water, where final concentration of DMSO in kinase reactions was 0.1% for all drug concentrations. Activation buffer that consists of a final concentration in the reactions of 10 mM MgCl2 and ATP (˜92 μM for WT-LRRK2 reactions and ˜52 μM for G2019S-LRRK2, which represent respective Km ATP concentrations) were added to each reaction, in addition to 0.5 μCi of gamma-32-P-dATP per reaction. Reactions were incubated at 1400 RPM at 30° C. for 30 min. and then spotted in triplicate directly onto a slot-blot apparatus fitted with phospho-cellulose paper and allowed to dry. Each slot was then washed with 10 mM phosphoric acid buffer until beta-radiation could not be detected in eluted wash buffer, usually ˜1 mL per slot. Paper within each slot were excised and radiation measured by liquid scintillation.

T1 sequence (Q5S007 970-2527 G2019S limits assumed): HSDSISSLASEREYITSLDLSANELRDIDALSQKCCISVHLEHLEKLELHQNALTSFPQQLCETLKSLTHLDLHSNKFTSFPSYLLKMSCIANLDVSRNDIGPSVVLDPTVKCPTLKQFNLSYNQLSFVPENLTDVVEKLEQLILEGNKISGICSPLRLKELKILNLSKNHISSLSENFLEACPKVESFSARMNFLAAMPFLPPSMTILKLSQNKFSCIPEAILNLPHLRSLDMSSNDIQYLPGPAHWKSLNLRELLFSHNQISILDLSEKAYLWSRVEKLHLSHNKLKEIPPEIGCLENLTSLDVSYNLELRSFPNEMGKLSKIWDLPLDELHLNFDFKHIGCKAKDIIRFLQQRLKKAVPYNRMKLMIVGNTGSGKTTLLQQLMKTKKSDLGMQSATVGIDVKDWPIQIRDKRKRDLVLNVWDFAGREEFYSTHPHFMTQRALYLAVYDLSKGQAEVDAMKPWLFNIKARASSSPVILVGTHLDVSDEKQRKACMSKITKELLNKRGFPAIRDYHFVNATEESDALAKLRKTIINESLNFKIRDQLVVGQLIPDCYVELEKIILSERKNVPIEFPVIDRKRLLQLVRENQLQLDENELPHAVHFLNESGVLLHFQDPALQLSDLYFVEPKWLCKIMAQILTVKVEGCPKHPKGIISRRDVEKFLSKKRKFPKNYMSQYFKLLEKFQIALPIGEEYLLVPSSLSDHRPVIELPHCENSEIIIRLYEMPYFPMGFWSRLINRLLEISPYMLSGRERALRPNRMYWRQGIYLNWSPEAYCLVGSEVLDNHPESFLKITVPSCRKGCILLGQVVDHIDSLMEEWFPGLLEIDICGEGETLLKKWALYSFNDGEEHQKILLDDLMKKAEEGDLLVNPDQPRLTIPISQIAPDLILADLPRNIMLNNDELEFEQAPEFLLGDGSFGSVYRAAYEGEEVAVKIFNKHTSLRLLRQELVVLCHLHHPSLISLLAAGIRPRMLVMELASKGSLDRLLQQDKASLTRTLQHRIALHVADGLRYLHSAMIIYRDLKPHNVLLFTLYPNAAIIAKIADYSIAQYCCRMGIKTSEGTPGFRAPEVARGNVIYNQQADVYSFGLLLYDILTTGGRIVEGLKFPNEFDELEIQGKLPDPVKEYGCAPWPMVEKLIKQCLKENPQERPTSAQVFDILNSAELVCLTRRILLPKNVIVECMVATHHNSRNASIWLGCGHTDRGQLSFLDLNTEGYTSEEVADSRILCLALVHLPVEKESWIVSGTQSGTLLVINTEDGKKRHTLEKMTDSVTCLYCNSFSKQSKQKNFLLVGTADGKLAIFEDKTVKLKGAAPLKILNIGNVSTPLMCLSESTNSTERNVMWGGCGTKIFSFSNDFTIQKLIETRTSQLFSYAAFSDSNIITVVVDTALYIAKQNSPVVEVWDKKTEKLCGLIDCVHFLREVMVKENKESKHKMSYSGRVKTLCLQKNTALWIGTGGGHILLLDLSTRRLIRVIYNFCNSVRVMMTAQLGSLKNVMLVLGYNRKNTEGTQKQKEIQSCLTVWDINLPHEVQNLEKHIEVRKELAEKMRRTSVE

Structure (SMILES) | IC50
CCC(Sc1ccc2nnc(-c3ccc(C(F)(F)F)cc3)n2n1)C(N)=O (centres unmarked) [Example 78, 2-((3-(4-(trifluoromethyl)phenyl)-[1,2,4]triazolo[4,3-b]pyridazin-6-yl)thio)butanamide] | ≥ 5000 nM
CCC(Sc1ccc2nnc(-c3ccc(Cl)s3)n2n1)C(=O)O (centres unmarked) [Example 61, 2-((3-(5-chlorothiophen-2-yl)-[1,2,4]triazolo[4,3-b]pyridazin-6-yl)thio)butanoic acid] | ≥ 5000 nM
Cc1ccc(-c2nnc3ccc(SCC(=O)N4CCCC4)nn23)cc1 [Example 25, 1-(pyrrolidin-1-yl)-2-((3-(p-tolyl)-[1,2,4]triazolo[4,3-b]pyridazin-6-yl)thio)ethanone] | 1000 to 5000 nM
CCC(Sc1ccc2nnc(-c3cccc(F)c3)n2n1)C(=O)O (centres unmarked) [Example 56, 2-((3-(3-fluorophenyl)-[1,2,4]triazolo[4,3-b]pyridazin-6-yl)thio)butanoic acid] | 100 to 1000 nM
CC(Sc1ccc2nnc(-c3ncccn3)n2n1)C(=O)N1CCCCC1 (centres unmarked) [Example 109, 1-(piperidin-1-yl)-2-((3-(pyrimidin-2-yl)-[1,2,4]triazolo[4,3-b]pyridazin-6-yl)thio)propan-1-one] | 100 to 1000 nM
NC(=O)CS(=O)(=O)c1ccc2nnc(-c3cccs3)n2n1 [Example 91, 2-((3-(thiophen-2-yl)-[1,2,4]triazolo[4,3-b]pyridazin-6-yl)sulfonyl)acetamide] | 1000 to 5000 nM
CCc1ccc(-c2cnc3ccc(SC(CC)C(=O)O)nn23)s1 (centres unmarked) [Example 88, 2-((3-(5-ethylthiophen-2-yl)imidazo[1,2-b]pyridazin-6-yl)thio)butanoic acid] | 1000 to 5000 nM
CC(Sc1ccc2nnc(-c3cnccn3)n2n1)C(=O)N1CCCCC1 (centres unmarked) [Example 108, 1-(piperidin-1-yl)-2-((3-(pyrazin-2-yl)-[1,2,4]triazolo[4,3-b]pyridazin-6-yl)thio)propan-1-one] | 100 to 1000 nM
c1csc(-c2nnc3ccc(N4CCCCC4)nn23)c1 [Example 20, 6-(piperidin-1-yl)-3-(thiophen-2-yl)-[1,2,4]triazolo[4,3-b]pyridazine] | ≥ 5000 nM
Cc1ccc(-c2nnc3ccc(SCC(=O)N4CCCCC4)nn23)s1 [Example 57, 2-((3-(5-methylthiophen-2-yl)-[1,2,4]triazolo[4,3-b]pyridazin-6-yl)thio)-1-(piperidin-1-yl)ethanone] | 1000 to 5000 nM
NC(=O)CSc1ccc2nnc(-c3ccco3)n2n1 [Example 26, 2-((3-(furan-2-yl)-[1,2,4]triazolo[4,3-b]pyridazin-6-yl)thio)acetamide] | 100 to 1000 nM
CC(Sc1ccc2nnc(-c3ccn[nH]3)n2n1)C(=O)N1CCCCC1 (centres unmarked) [Example 115, 2-((3-(1H-pyrazol-5-yl)-[1,2,4]triazolo[4,3-b]pyridazin-6-yl)thio)-1-(piperidin-1-yl)propan-1-one] | 100 to 1000 nM
CCC(Sc1ccc2nnc(-c3ccc(F)cc3)n2n1)C(=O)O (centres unmarked) [Example 6, 2-((3-(4-fluorophenyl)-[1,2,4]triazolo[4,3-b]pyridazin-6-yl)thio)butanoic acid] | 100 to 1000 nM
CC(Sc1ccc2nnc(-c3nccs3)n2n1)C(=O)O (centres unmarked) [Example 124, 2-((3-(thiazol-2-yl)-[1,2,4]triazolo[4,3-b]pyridazin-6-yl)thio)propanoic acid] | 100 to 1000 nM
NC(=O)CSc1ccc2nnc(-c3ccsc3)n2n1 [Example 5, 2-((3-(thiophen-3-yl)-[1,2,4]triazolo[4,3-b]pyridazin-6-yl)thio)acetamide] | 100 to 1000 nM
NC(=O)CSc1ccc2nnc(-c3nccs3)n2n1 [Example 37, 2-((3-(thiazol-2-yl)-[1,2,4]triazolo[4,3-b]pyridazin-6-yl)thio)acetamide] | ≥ 5000 nM

Next, values leading:

IC50 | Structure (SMILES)
< 100 nM | CCC(Sc1ccc2nnc(-c3cccs3)n2n1)C(=O)N1CCCCC1 (centres unmarked) [Example 34, 1-(piperidin-1-yl)-2-((3-(thiophen-2-yl)-[1,2,4]triazolo[4,3-b]pyridazin-6-yl)thio)butan-1-one]
< 100 nM | CCC(Sc1ccc2nnc(-c3cccs3)n2n1)C(=O)N1CCCC1 (centres unmarked) [Example 46, 1-(pyrrolidin-1-yl)-2-((3-(thiophen-2-yl)-[1,2,4]triazolo[4,3-b]pyridazin-6-yl)thio)butan-1-one]
100 to 1000 nM | O=C(CSc1ccc2nnc(-c3cccs3)n2n1)N1CCOCC1 [Example 24, 1-morpholino-2-((3-(thiophen-2-yl)-[1,2,4]triazolo[4,3-b]pyridazin-6-yl)thio)ethanone]
≥ 5000 nM | CCC(Nc1ccc2nnc(-c3cccs3)n2n1)C(=O)OC (centres unmarked) [Example 98, methyl 2-((3-(thiophen-2-yl)-[1,2,4]triazolo[4,3-b]pyridazin-6-yl)amino)butanoate]
100 to 1000 nM | CCCC(Sc1ccc2nnc(-c3cccs3)n2n1)C(=O)O (centres unmarked) [Example 92, 2-((3-(thiophen-2-yl)-[1,2,4]triazolo[4,3-b]pyridazin-6-yl)thio)pentanoic acid]
≥ 5000 nM | CCOC(=O)C(CC)Oc1ccc2nnc(-c3cccs3)n2n1 (centres unmarked) [Example 82, ethyl 2-((3-(thiophen-2-yl)-[1,2,4]triazolo[4,3-b]pyridazin-6-yl)oxy)butanoate]
100 to 1000 nM | CCC(Sc1ccc2nnc(-c3cccc(OC)c3)n2n1)C(=O)N1CCCCC1 (centres unmarked) [Example 73, 2-((3-(3-methoxyphenyl)-[1,2,4]triazolo[4,3-b]pyridazin-6-yl)thio)-1-(piperidin-1-yl)butan-1-one]
≥ 5000 nM | CCC(Oc1ccc2nnc(-c3cccs3)n2n1)C(N)=O (centres unmarked) [Example 84, 2-((3-(thiophen-2-yl)-[1,2,4]triazolo[4,3-b]pyridazin-6-yl)oxy)butanamide]
1000 to 5000 nM | CCOC(=O)C1CCCN(C(=O)C(CC)Sc2ccc3nnc(-c4cccs4)n3n2)C1 (centres unmarked) [Example 103, ethyl 1-(2-((3-(thiophen-2-yl)-[1,2,4]triazolo[4,3-b]pyridazin-6-yl)thio)butanoyl)piperidine-3-carboxylate]
100 to 1000 nM | CCC(Sc1ccc2nnc(-c3cccs3)n2n1)C(=O)NCc1cccs1 (centres unmarked) [Example 48, 2-((3-(thiophen-2-yl)-[1,2,4]triazolo[4,3-b]pyridazin-6-yl)thio)-N-(thiophen-2-ylmethyl)butanamide]
≥ 5000 nM | CCC(Nc1ccc2nnc(-c3cccs3)n2n1)C(N)=O (centres unmarked) [Example 99, 2-((3-(thiophen-2-yl)-[1,2,4]triazolo[4,3-b]pyridazin-6-yl)amino)butanamide]
100 to 1000 nM | CC(Sc1ccc2nnc(-c3nccs3)n2n1)C(=O)N1CCC1 (centres unmarked) [Example 126, 1-(azetidin-1-yl)-2-((3-(thiazol-2-yl)-[1,2,4]triazolo[4,3-b]pyridazin-6-yl)thio)propan-1-one]
100 to 1000 nM | CCC(Sc1ccc2nnc(-c3cccs3)n2n1)C(=O)N1CCOCC1 (centres unmarked) [Example 47, 1-morpholino-2-((3-(thiophen-2-yl)-[1,2,4]triazolo[4,3-b]pyridazin-6-yl)thio)butan-1-one]
≥ 5000 nM | CCOC(=O)C(CC)Sc1ccc2nnc(-c3ccc(OC)cc3)n2n1 (centres unmarked) [Example 65, ethyl 2-((3-(4-methoxyphenyl)-[1,2,4]triazolo[4,3-b]pyridazin-6-yl)thio)butanoate]
100 to 1000 nM | NC(=O)CSc1ccc2nnc(-c3cccs3)n2n1 [Example 3, 2-((3-(thiophen-2-yl)-[1,2,4]triazolo[4,3-b]pyridazin-6-yl)thio)acetamide]
100 to 1000 nM | CCC(Sc1ccc2nnc(-c3ccc(OC)cc3)n2n1)C(=O)N1CCCCC1 (centres unmarked) [Example 67, 2-((3-(4-methoxyphenyl)-[1,2,4]triazolo[4,3-b]pyridazin-6-yl)thio)-1-(piperidin-1-yl)butan-1-one]
≥ 5000 nM | CCC(Sc1ccc2nnc(-c3ccc(C)s3)n2n1)C(=O)N1CCCCC1 (centres unmarked) [Example 59, 2-((3-(5-methylthiophen-2-yl)-[1,2,4]triazolo[4,3-b]pyridazin-6-yl)thio)-1-(piperidin-1-yl)butan-1-one]
100 to 1000 nM | CCC(Sc1ccc2nnc(-c3cccs3)n2n1)C(=O)NC1CCCCC1 (centres unmarked) [Example 52, N-cyclohexyl-2-((3-(thiophen-2-yl)-[1,2,4]triazolo[4,3-b]pyridazin-6-yl)thio)butanamide]
100 to 1000 nM | CCC(Sc1ccc2nnc(-c3ccccc3)n2n1)C(=O)N1CCCCC1 (centres unmarked) [Example 106, 2-((3-phenyl-[1,2,4]triazolo[4,3-b]pyridazin-6-yl)thio)-1-(piperidin-1-yl)butan-1-one]
100 to 1000 nM | O=C(CSc1ccc2nnc(-c3cccs3)n2n1)N1CCCCC1 [Example 11, 1-(piperidin-1-yl)-2-((3-(thiophen-2-yl)-[1,2,4]triazolo[4,3-b]pyridazin-6-yl)thio)ethanone]
100 to 1000 nM | CCC(Sc1ccc2nnc(-c3ccc(F)c(F)c3)n2n1)C(=O)N1CCCCC1 (centres unmarked) [Example 96, 2-((3-(3,4-difluorophenyl)-[1,2,4]triazolo[4,3-b]pyridazin-6-yl)thio)-1-(piperidin-1-yl)butan-1-one]

Source: patent US9187484B2 (Southern Research Institute, priority 2012, dated 2015)
